Columns and labels:
SAPK3 (GST-SAPK3) = target: T1, SAPK3 (GST-SAPK3) (Rattus norvegicus, UniProt Q63538); assay: Effect of SB 203580 on SKK3-activated SAPK3 (FIG. 19); type: biochemical; settings: even at a concentration of 0.1 mM; activated in vitro with purified SKK3
T1 construct: made in house; host or cells: E. coli BL21 (DE3)
T1 sequence (Q63538 1-367): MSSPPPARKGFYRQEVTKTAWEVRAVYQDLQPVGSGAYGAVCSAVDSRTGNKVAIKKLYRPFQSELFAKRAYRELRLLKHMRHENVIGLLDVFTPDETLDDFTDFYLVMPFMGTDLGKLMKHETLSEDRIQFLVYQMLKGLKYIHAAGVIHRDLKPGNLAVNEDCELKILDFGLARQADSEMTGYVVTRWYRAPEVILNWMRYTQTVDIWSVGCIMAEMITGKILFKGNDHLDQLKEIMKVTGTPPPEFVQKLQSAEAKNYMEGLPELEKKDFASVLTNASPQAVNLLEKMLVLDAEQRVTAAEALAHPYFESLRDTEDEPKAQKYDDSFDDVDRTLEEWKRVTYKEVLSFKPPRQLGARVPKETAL
Procedure: (§1) Protein kinase assays. SAPK3 was assayed routinely by the phosphorylation of MBP. SAPK3 (0.5 or 1 μM) in 40 μl of 25 mM Tris/HCl pH 7.5, 0.1 mM EGTA, 0.1 mM sodium orthovanadate, 1 μM PKI and 0.33 mg/ml MBP was incubated for 3 min at 30° C. before initiating the reaction with 10 μl of 50 mM magnesium acetate-0.5 mM [γ-^32P]ATP. After 20 min at 30° C. 40 μl aliquots were withdrawn, spotted on to 1.5×1.5 cm squares of Whatman P81 phosphocellulose paper and immersed in 75 mM phosphoric acid. After washing and drying the papers (Alessi et al, 1995b), ^32P radioactivity incorporated into MBP was measured. One unit of activity was that amount of enzyme which incorporated 1 nmol of phosphate into MBP in 1 min.

human SAPK3 = target: T2, human SAPK3 (Homo sapiens, UniProt P53778); assay: Inhibition of SAPK3, MBP phosphorylation (FIG. 9); type: biochemical
T2 construct: made in house; host or cells: E. coli BL21(DE3)
T2 sequence (P53778 1-367): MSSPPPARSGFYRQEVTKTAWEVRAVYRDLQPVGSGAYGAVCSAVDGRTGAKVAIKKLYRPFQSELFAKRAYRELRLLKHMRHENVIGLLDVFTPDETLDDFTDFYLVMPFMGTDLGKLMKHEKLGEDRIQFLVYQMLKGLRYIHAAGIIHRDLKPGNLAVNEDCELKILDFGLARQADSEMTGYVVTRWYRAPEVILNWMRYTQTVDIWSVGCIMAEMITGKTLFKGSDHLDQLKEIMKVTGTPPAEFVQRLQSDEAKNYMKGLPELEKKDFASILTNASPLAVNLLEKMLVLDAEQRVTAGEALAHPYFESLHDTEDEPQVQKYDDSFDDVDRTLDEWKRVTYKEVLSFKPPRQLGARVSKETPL
Procedure: SAPK4, SAPK2a and SAPK2b were assayed routinely by the phosphorylation of MBP, exactly as described for SAPK3 in Example 4 and Cuenda et al, 1997. One unit of activity was that amount of enzyme which incorporated 1 nmol of phosphate into MBP in 1 min. SAPK4 activators were assayed by their ability to activate GST-SAPK4, as described for GST-SAPK3 in Example 4 and Cuenda et al, 1997. Control experiments were carried out in which GST-SAPK4 was omitted. One unit of SAPK4 activator was that amount which increased SAPK4 activity by I U/min. […] SAPK2a activators were assayed by their ability to activate the X. laevis homologue of SAPK2a (Meier et al, 1996). Activated SAPK2a itself was measured by the activation of GST-MAPKAP-K2(46400).
as §1

MAPKAP-K2 = settings: every mammalian cell so far examined; cited from earlier work
MAPKAP-K3 = settings: every mammalian cell so far examined; cited from earlier work

## C[S+]([O-])c1ccc(-c2nc(-c3ccncc3)c(-c3ccc(F)cc3)[nH]2)cc1 (centres unmarked) [SB 203580]
SAPK3 (GST-SAPK3)
  Inhibition of SAPK3: not inhibited significantly
Human SAPK3; SAPK3 activated by SKK3 in vitro
  Inhibition of SAPK3: not inhibited
Human SAPK3; dephosphorylated form, <0.1% of the activity of the phosphorylated form, data not shown
  Inhibition of dephosphorylated form of SAPK3: failed to inhibit
MAPKAP-K2
  Suppression of stress- and cytokine-induced activation of MAPKAP-K2: 80-95%
MAPKAP-K3
  Suppression of stress- and cytokine-induced activation of MAPKAP-K3: 80-95%
